From patent publication US20240010654A1, “CRYSTALLINE FORMS OF A TYK2 INHIBITOR” (Ventyx Biosciences, Inc., priority 2022, published 2024)
Several values for one entry are separate records, joined by “and”; a condition that tells them apart may be missing. Identical values can stand only once. Counter-ions that a name gives are not always drawn. Like-named read-outs stand apart in the source and are kept apart here.

Legend:
JAK1/TYK2 = experiment: Co-stimulation assay in lysed whole blood: IFNa (JAK1/TYK2) stimulated STAT1 phosphorylation; format: cell-based; settings: lysed human whole blood, IFNa 100 ng/mL, pSTAT1 by flow cytometry; read-out: IFN-a/Jak1Tyk2 IC50
Protocol: Example 16: Co-Stimulation Assay in Lysed Whole Blood; JAK2: GM-CSF Stimulated STAT5 Phosphorylation and JAK1/TYK2 Stimulated STAT1 Phosphorylation Assay
Dilute RBC lysis buffer to 1× in distilled water. Add 2 mL blood to 38 mL of 1×RBC-lysis buffer. Incubate for 15 mins at RT, in dark. Spin at 300 g, 5 mins, to collect the pellet. Re-lyse if necessary. Re-suspend pellet in 5 mL of cRPMI.
Aliquot 80 μL of lysed human blood in to wells of 96 deep-well plate. Add 10 μL of (10× conc.) of different concentrations of Compound 1 to all wells except controls (unstained and unstimulated) and mix it with the help of 100 uL multichannel. Add 10 uL of RPMI media in controls. For dilution of Compound 1 and dilution range please refer Appendix. Incubate on water bath or CO2 incubator for 1 hour at 37° C. Add 10 μL of (10× conc.) of cytokine mix (GM-CSF and IFNa) (final conc. 10 ng/mL of GM-CSF and 100 ng/mL of IFNa) to each well except unstimulated and unstained controls and incubate further for 20 minutes on water bath at 37° C.
Add 900 μL of prewarmed 1× Fix/Lyse solution (Appendix) and mix it properly using 1000 μl multichannel, incubate further on water bath at 37° C. for 10 minutes (which includes time of addition). Centrifuge at 800×g for 5 minutes at 40° C.; remove 900 uL of supernatant and add 900 μL of 1×PBS. Centrifuge at 800×g for 5 minutes at 40° C., remove 900 μL of supernatant. […]

[1] = Dynamic Vapor Sorption (DVS); format: physicochemical; settings: for hygroscopicity of the material (DVS): 25° C.; for Post-DVS analysis by XRPD: after DVS cycle at 25° C.
Protocol: DVS data was collected on a Vsorp Dynamic Moisture Sorption Analyzer (ProUmid GmbH & Co. KG, Germany). The sample was placed into a tared sample chamber and automatically weighed. • Sample temperature: 25° C. • Cycle: Full cycle • Adsorption: 0, 10, 20, 30, 40, 50, 60, 70, 80, 90 • Desorption: 80, 70, 60, 50, 40, 30, 20, 10, 0 • Characterize the sample after the DVS experiment by XRPD
Alternatively, DVS analysis was carried out using a Surface Measurement System DVS Intrinsic analyzer. The instrument was calibrated with standard weights. Approximately 15-20 mg of sample was loaded into a pan for analysis. The sample was analyzed at 25° C. in 10% relative humidity (RH) steps from 50% to 95% RH (adsorption cycle), from 95% to 0% RH (desorption cycle), and from 0% to 50% RH (adsorption cycle). The movement from one step to the next occurred either after satisfying the equilibrium criterion of 0.002% weight change (dm/dt) or, if the equilibrium criterion was not met, after ten hours. Samples after the DVS test were tested by XRPD.

[2] = Competitive slurry experiments of Compound 1 adipate, Forms 1, 2 and 3; format: physicochemical; settings: from the competitive slurry experiments
Protocol: The resulting solid was collected by filtration and analyzed by XRPD.
A mixed sample of Compound 1 adipate, […] and Compound 1 adipate, Form 2 was suspended in solvents (40 mg, 0.5 mL) and stirred at 50° C. for 1 h. The resulting solid was collected by filtration and analyzed by XRPD.

[3] = Stability test of Compound 1 adipate, Form 1 (HPLC purity and XRPD after storage); format: physicochemical; settings: for XRPD (crystal form at day 7): after 7 days storage
Protocol: Samples were prepared in duplicate for each condition. At day 7, the samples were analyzed by HPLC and XRPD to check the purity and the crystal form, respectively.

[4] = Pharmacokinetics following oral administration in male cynomolgus monkeys; format: in vivo; settings: for AUC/Dose: in ng·h/mL per mg/kg; for Cmax: read-out: C0/Cmax
Protocol: The gavage tube was flushed with 5 mL of vehicle after administration of the dose. Plasma samples were collected at the following time points: 15 min, 30 min, 1 hr, 2 hr, 4 hr, 6 hr, 8 hr and 24 hr postdose. The concentrations of Compound 1 were determined in plasma.

[5] = male, cynomolgus monkey, plasma, po, 50 mg/kg, PO BID, 50 mg/kg BID

CNc1cc(Nc2cc(F)cc3c2OCCO3)nc2c(NC(=O)N[C@@H]3C[C@@H]3F)cnn12 [Compound 1, 1-(5-((7-fluoro-2,3-dihydrobenzo[b][1,4]dioxin-5-yl)amino)-7-(methylamino)pyrazolo[1,5-a]pyrimidin-3-yl)-3-((1R,2S)-2-fluorocyclopropyl)urea]
IC50 (JAK1/TYK2): < 1000 nM

CNc1cc(Nc2cc(F)cc3c2OCCO3)nc2c(NC(=O)N[C@@H]3C[C@@H]3F)cnn12 [Compound 1 phosphate, Form 1, 1-(5-((7-fluoro-2,3-dihydrobenzo[b][1,4]dioxin-5-yl)amino)-7-(methylamino)pyrazolo[1,5-a]pyrimidin-3-yl)-3-((1R,2S)-2-fluorocyclopropyl)urea]
hygroscopicity of the material (DVS) [1]: slightly hygroscopic | water uptake (DVS) ([1]; 80% RH and 25° C.): 1.20% | Post-DVS analysis by XRPD [1]: no change

CNc1cc(Nc2cc(F)cc3c2OCCO3)nc2c(NC(=O)N[C@@H]3C[C@@H]3F)cnn12 [Compound 1 mesylate, Form 1, 1-(5-((7-fluoro-2,3-dihydrobenzo[b][1,4]dioxin-5-yl)amino)-7-(methylamino)pyrazolo[1,5-a]pyrimidin-3-yl)-3-((1R,2S)-2-fluorocyclopropyl)urea]
water uptake (DVS) ([1]; 95% RH and 25° C.): 2.65% | Post-DVS analysis by XRPD [1]: no change

CNc1cc(Nc2cc(F)cc3c2OCCO3)nc2c(NC(=O)N[C@@H]3C[C@@H]3F)cnn12 [Compound 1 adipate, Form 1, 1-(5-((7-fluoro-2,3-dihydrobenzo[b][1,4]dioxin-5-yl)amino)-7-(methylamino)pyrazolo[1,5-a]pyrimidin-3-yl)-3-((1R,2S)-2-fluorocyclopropyl)urea adipate]
hygroscopicity of the material (DVS) [1]: non-hygroscopic | water uptake (DVS) ([1]; 80% RH and 25° C.): less than 0.2% | Post-DVS analysis by XRPD [1]: no change | relative stability among the three Compound 1 adipate forms [2]: most stable form | HPLC purity ([3]; 40° C./75% RH (open) @ 7 d, duplicate, batch from DMSO/EtOAc/EtOH): 99.75 and 99.86 | HPLC purity ([3]; 40° C./75% RH (open) @ 7 d, duplicate, batch from DMSO/EtOH/Water): 99.64 and 99.65 | HPLC purity ([3]; 40° C./75% RH (open) @ 7 d, duplicate, batch from acetone/water (19/1)): 99.43 and 99.44 | physical and chemical stability ([3]; 60° C. (capped) and 40° C./75% RH (open) for 1 week): both physically and chemically stable | HPLC purity ([3]; 60° C./capped @ 7 d, duplicate, batch from DMSO/EtOAc/EtOH): 99.85 and 99.82 | HPLC purity ([3]; 60° C./capped @ 7 d, duplicate, batch from DMSO/EtOH/Water): 99.65/99.65 | HPLC purity ([3]; 60° C./capped @ 7 d, duplicate, batch from acetone/water (19/1)): 99.44/99.44 | HPLC purity ([3]; Day 0, batch from DMSO/EtOAc/EtOH (Example 13Ac)): 99.86 | HPLC purity ([3]; Day 0, batch from DMSO/EtOH/Water (Example 13Ad)): 99.66 | HPLC purity ([3]; Day 0, batch from acetone/water (19/1) (Example 13Ab)): 99.49 | XRPD (crystal form at day 7) ([3]; batch from DMSO/EtOAc/EtOH): Adipate, Form 1 | XRPD (crystal form at day 7) ([3]; batch from DMSO/EtOH/Water): Adipate, Form 1 | XRPD (crystal form at day 7) ([3]; batch from acetone/water (19/1)): Adipate, Form 1 | % F (oral bioavailability) ([4]; PO, 5 mg/kg, Form 1, 5 mg/kg): 33.6% | AUClast ([4]; PO, 5 mg/kg, Form 1, 5 mg/kg): 2347 ng·h/mL | C0/Cmax ([4]; PO, 5 mg/kg, Form 1, 5 mg/kg): 672 ng/mL | Tmax ([4]; PO, 5 mg/kg, Form 1, 5 mg/kg): 2.67 h | AUC/Dose ([4]; PO, 5 mg/kg, Form 1, 5 mg/kg): 469 | AUC/Dose ([4]; PO, 100 mg/kg): 1083 | half-life ([4]; cynomolgus monkey, plasma, PO, 5 mg/kg): 2.66 h | AUC(0-t) ([4]; male, cynomolgus monkey, plasma, po, 100 mg/kg): 108000 ng·h/mL | Cmax ([4]; male, cynomolgus monkey, plasma, po, 100 mg/kg, PO, 100 mg/kg): 9770 ng/mL | Tmax ([4]; male, cynomolgus monkey, plasma, po, 100 mg/kg, PO, 100 mg/kg, read-out: Tmax): 4.67 h | PK compared to Compound 1 free base, Form A ([4]; oral gavage, Table 9): faster Tmax and higher AUC | PK compared to Compound 1 oxalate, Form 1 ([4]; oral gavage, Table 10): faster Tmax, higher AUC, and higher oral bioavailability (% F)

CNc1cc(Nc2cc(F)cc3c2OCCO3)nc2c(NC(=O)N[C@@H]3C[C@@H]3F)cnn12 [Compound 1, Form A, 1-(5-((7-fluoro-2,3-dihydrobenzo[b][1,4]dioxin-5-yl)amino)-7-(methylamino)pyrazolo[1,5-a]pyrimidin-3-yl)-3-((1R,2S)-2-fluorocyclopropyl)urea]
water uptake (DVS) ([1]; 95% RH and 25° C.): 5.08% | Post-DVS analysis by XRPD [1]: no change | AUC/Dose ([4]; PO BID, 50 mg/kg BID): 761 | AUC(0-t) [4, 5]: 76100 ng·h/mL | Tmax ([4]; male, cynomolgus monkey, plasma, po, 50 mg/kg, PO BID, 50 mg/kg BID, after second dose, read-out: Tmax): 7 h | Cmax [4, 5]: 5630 ng/mL

CNc1cc(Nc2cc(F)cc3c2OCCO3)nc2c(NC(=O)N[C@@H]3C[C@@H]3F)cnn12 [Compound 1, Form B, 1-(5-((7-fluoro-2,3-dihydrobenzo[b][1,4]dioxin-5-yl)amino)-7-(methylamino)pyrazolo[1,5-a]pyrimidin-3-yl)-3-((1R,2S)-2-fluorocyclopropyl)urea]
water uptake (DVS) ([1]; 95% RH and 25° C.): 0.68% | Post-DVS analysis by XRPD [1]: no change

CNc1cc(Nc2cc(F)cc3c2OCCO3)nc2c(NC(=O)N[C@@H]3C[C@@H]3F)cnn12 [Compound 1 oxalate, Form 1, 1-(5-((7-fluoro-2,3-dihydrobenzo[b][1,4]dioxin-5-yl)amino)-7-(methylamino)pyrazolo[1,5-a]pyrimidin-3-yl)-3-((1R,2S)-2-fluorocyclopropyl)urea]
hygroscopicity of the material (DVS) [1]: slightly hygroscopic | water uptake (DVS) ([1]; 80% RH and 25° C.): 0.37% | Post-DVS analysis by XRPD [1]: no change | C0/Cmax ([4]; PO, 5 mg/kg, Form 1, 5 mg/kg): 103 ng/mL | AUC/Dose ([4]; PO, 5 mg/kg, Form 1, 5 mg/kg): 302 | AUC(0-t) ([4]; male, cynomolgus monkey, plasma, po, 5 mg/kg): 1510 ng·h/mL | bioavailability ([4]; male, cynomolgus monkey, plasma, po, 5 mg/kg, PO, 5 mg/kg, read-out: % F (oral bioavailability)): 21.6% | Tmax ([4]; male, cynomolgus monkey, plasma, po, 5 mg/kg, PO, 5 mg/kg, read-out: Tmax): 4.67 h
